# Counter-ions that a name gives are not always drawn.
# Tested on: ATGL-KO iPSCs
# Assay: High throughput iPSC chemical screening, Oil Red O (ORO) lipid accumulation; also: test concentration or dose not given here
# Type: cell-based, mouse
# Details: not given
row,SMILES,Z-score
1,CN1CCc2cccc3c2[C@H]1Cc1ccc(O)c(O)c1-3.CN1CCc2cccc3c2[C@H]1Cc1ccc(O)c(O)c1-3.Cl.Cl.O,−0.2622
2,O=C(O)C1CCCNC1 (racemic) [(±)-Nipecotic acid],0.6655
3,CC(=C(CCO)SSCC1CCCO1)N(C=O)Cc1cnc(C)nc1N (stereo in doubt) [Fursultiamine Hydrochloride],−0.696
4,C[C@]12CC[C@@H](O)C[C@H]1CC[C@@H]1[C@@H]2CC[C@]2(C)C(=O)CC[C@@H]12 [3-alpha-Hydroxy-5-beta-androstan-17-one],−0.187

# Same assay, conditions: normalized ORO level vs DMSO-treated cells; compound present during 7 days differentiation, 96-well; negative = decrease in lipid accumulation
row,SMILES,Z-score
1,COc1ccc2c(c1)[C@]13CCCC[C@@H]1[C@H](C2)N(C)CC3,−0.8776
2,COc1cc2c(cc1OC)C(C)NCC2.Cl (stereo not shown),0.4756
3,Cc1ccc(Cl)c(Nc2ccccc2C(=O)O)c1Cl,−1.2044
4,CC(C)NCC(O)c1cc(O)cc(O)c1.CC(C)NCC(O)c1cc(O)cc(O)c1.O=S(=O)(O)O (stereo not shown),−0.3842
5,O=C(O)Cc1cc(I)c(Oc2ccc(O)c(I)c2)c(I)c1,−0.9554
6,CN(N=O)C(=O)N[C@H]1C(O)O[C@H](CO)[C@@H](O)[C@@H]1O (mixture of isomers) [Streptozotocin],0.0088
7,"Cl.NCC(O)c1ccc(O)cc1 (racemic) [(+,−)-Octopamine hydrochloride]",0.9737
8,"CNCC(O)c1ccc(O)cc1 (racemic) [(+,−)-Synephrine]",−1.0448
9,"CN(Cc1cnc2nc(N)nc(N)c2n1)c1ccc(C(=O)N[C@@H](CCC(=O)O)C(=O)O)cc1 (racemic) [Amethopterin (R,S)]",15.6786
10,"CC(=O)NC(CC(=O)O)C(=O)O (racemic) [Aspartic acid, N-acetyl (R,S)]",0.7559
11,"NCC(CC(=O)O)c1ccc(Cl)cc1 (racemic) [Baclofen (R,S)]",0.07861
12,"O.Oc1cc(O)c2c(c1)OC(c1ccc(O)c(O)c1)C(O)C2 (racemic) [Catechin-(+,−) hydrate]",−0.9777
13,"OCC(O)CN1CCN(c2ccccc2)CC1 (racemic) [Dropropizine (R,S)]",0.6396
14,"Nc1c2c(nc3ccccc13)CCCC2O.O=C(O)/C=C\C(=O)O (racemic) [Hydroxytacrine maleate (R,S)]",−0.525
15,"Nc1c(O)cccc1C(=O)CC(N)C(=O)O (racemic) [Kynurenine, 3-hydroxy (R,S)]",0.1567
16,"COc1ccc(CC2c3cc(OC)c(OC)cc3CCN2C)cc1OC (racemic) [Laudanosine (R,S)]",−0.5493
17,"COCCc1ccc(OCC(O)CNC(C)C)cc1.COCCc1ccc(OCC(O)CNC(C)C)cc1.O=C(O)C(O)C(O)C(=O)O (racemic) [Metoprolol-(+,−) (+)-tartrate salt]",−0.4304
18,CC(=O)NC1CCSC1=O (racemic) [N-Acetyl-DL-homocysteine Thiolactone],0.1772
19,"CN1CCC2(C)c3cc(O)ccc3N(C)C12.O=C(O)/C=C/C(=O)O (single isomer, unassigned; (-)) [(−)-Eseroline fumarate salt]",−0.478
20,"CC(C)NCC(O)c1ccc(O)c(O)c1.Cl (single isomer, unassigned; (-)) [(−)-Isoproterenol hydrochloride]",4.267
21,"CC(=O)NC1[C@@H](O)OC(CO)[C@@H](O)[C@H]1O[C@H](C)C(=O)O (stereo in doubt) [Muramic acid, N-acetyl]",1.128
22,Nc1ccccc1S(N)(=O)=O [2-Aminobenzenesulfonamide],−1.9389
23,Clc1cnccn1 [2-Chloropyrazine],−0.5863
24,CC(=O)Nc1cc2ccccc2oc1=O [3-Acetamidocoumarin],0.06786
25,CC(=O)c1cc2ccccc2oc1=O [3-Acetylcoumarin],−0.8473
26,c1coc(CNc2ncnc3nc[nH]c23)c1 [6-Furfurylaminopurine],0.2192
27,CN1C2CC(=O)CC1C(O)C2 (stereo not shown) [6-Hydroxytropinone],0.54

# From patent US9393221B2, “Methods and compounds for reducing intracellular lipid storage” (THE GENERAL HOSPITAL CORPORATION, priority 2011, dated 2016)
